Measured values from ChEMBL document CHEMBL5608163, “Structure modification of anoplin for fighting resistant bacteria” (Eur J Med Chem, 2024).
In brackets after ≈: the same amount, converted by molar mass. Square brackets hold non-standard residues; d marks the D form. Peptide text beside a SMILES is read from it. 2Nal = N[C@@H](Cc1ccc2ccccc2c1)C(=O)O; hIle = CC[C@H](C)C[C@H](N)C(=O)O; Cha = N[C@@H](CC1CCCCC1)C(=O)O

Tests used:
Erythrocyte [1] = assay: Hemolytic activity in mouse Red blood cells incubated for 1 hr by microplate reader assay; assay type: toxicity, cell-based; conditions: erythrocyte, 1 h
Staphylococcus aureus [2] = assay: Antimicrobial activity against Staphylococcus aureus ATCC 25923 assessed as reduction in microbial growth incubated for 18 hrs by CLSI-based Mueller-Hinton broth dilution method; assay type: functional
Bacillus subtilis [3] = assay: Antibacterial activity against Bacillus subtilis ATCC 23857 assessed as reduction in bacterial growth incubated for 18 hrs by CLSI-based Mueller-Hinton broth dilution method; assay type: functional
[4] = test system: Staphylococcus epidermidis; assay: Antibacterial activity against Staphylococcus epidermidis ATCC 12228 assessed as reduction in bacterial growth incubated for 18 hrs by CLSI-based Mueller-Hinton broth dilution method; assay type: functional
Escherichia coli [5] = assay: Antibacterial activity against Escherichia coli ML-35 ATCC 43837 assessed as reduction in bacterial growth incubated for 18 hrs by CLSI-based Mueller-Hinton broth dilution method; assay type: functional
Pseudomonas aeruginosa [6] = assay: Antibacterial activity against Pseudomonas aeruginosa ATCC 27853 assessed as reduction in bacterial growth incubated for 18 hrs by CLSI-based Mueller-Hinton broth dilution method; assay type: functional
Klebsiella pneumoniae = assay: Antibacterial activity against Klebsiella pneumoniae ATCC 700603 assessed as reduction in bacterial growth incubated for 18 hrs by CLSI-based Mueller-Hinton broth dilution method; assay type: functional
Acinetobacter baumannii = assay: Antibacterial activity against Acinetobacter baumannii ATCC 19606 assessed as reduction in bacterial growth incubated for 18 hrs by CLSI-based Mueller-Hinton broth dilution method; assay type: functional
Erythrocyte [7] = assay: Hemolytic activity in mouse erythrocyte assessed as hemolysis incubated for 1 hr by microplate reader analysis; assay type: toxicity, cell-based
Staphylococcus aureus [8] = assay: Antibacterial activity against Staphylococcus aureus ATCC 25923 assessed as reduction in bacterial growth incubated for 18 to 20 hrs by Mueller Hinton broth dilution method; assay type: functional; conditions: time 18-20 hrs
Bacillus subtilis [9] = assay: Antibacterial activity against Bacillus subtilis ATCC 23857 assessed as reduction in bacterial growth incubated for 18 to 20 hrs by Mueller Hinton broth dilution method; assay type: functional; conditions: time 18-20 hrs
Escherichia coli [10] = assay: Antibacterial activity against Escherichia coli ATCC 25922 assessed as reduction in bacterial growth incubated for 18 to 20 hrs by Mueller Hinton broth dilution method; assay type: functional; conditions: time 18-20 hrs
Pseudomonas aeruginosa [11] = assay: Antibacterial activity against Pseudomonas aeruginosa ATCC 27853 assessed as reduction in bacterial growth incubated for 18 to 20 hrs by Mueller Hinton broth dilution method; assay type: functional; conditions: time 18-20 hrs
Pseudomonas aeruginosa [12] = assay: Antibacterial activity against Pseudomonas aeruginosa ATCC 27853 assessed as reduction in microbial growth incubated for 16 to 20 hrs by CLSI protocol based Muller Hinton broth assay; assay type: functional; conditions: time 16-20 hrs
Staphylococcus aureus [13] = assay: Antibacterial activity against methicillin-resistant Staphylococcus aureus ATCC 33591 assessed as reduction in bacterial growth incubated for 18 hrs by agar dilution method; assay type: functional
Enterococcus faecium = assay: Antibacterial activity against vancomycin resistant Enterococcus faecium ATCC 700221 assessed as inhibition of bacterial growth incubated for 48 hrs by CLSI-based broth microdilution assay; assay type: functional
Escherichia coli [14] = assay: Antibacterial activity against Escherichia coli ATCC 25922 assessed as reduction in microbial growth incubated for 16 to 20 hrs by CLSI protocol based Muller Hinton broth assay; assay type: functional; conditions: time 16-20 hrs
[15] = Hemolytic activity in human RBC assessed as hemolysis measured after 24 hrs; assay type: toxicity, cell-based, Erythrocyte; conditions: red blood cells

Structure (SMILES) | MIC (Staphylococcus aureus [2]) | MIC (Bacillus subtilis [3]) | MIC [4] | MIC (Escherichia coli [5]) | MIC (Pseudomonas aeruginosa [6]) | MIC (Klebsiella pneumoniae) | MIC (Acinetobacter baumannii) | HC10 (Erythrocyte [7]) | MIC (Pseudomonas aeruginosa [12]) | MIC (Staphylococcus aureus [13]) | MIC (Enterococcus faecium) | MIC (Escherichia coli [14]) | HC50 at 24 h [15] | further results
CC[C@H](C)[C@H](NC(=O)[C@H](CCCNC(=N)N)NC(=O)[C@@H](CCCCN)NC(=O)[C@H](CC(C)C)NC(=O)[C@H](CC(C)C)NC(=O)CN)C(=O)N[C@@H](CCCCN)C(=O)N[C@@H](C(=O)N[C@@H](CC(C)C)C(=O)N[C@@H](CC(C)C)C(N)=O)[C@H](C)O |  |  |  |  |  |  |  |  |  |  |  |  |  | HC10 (Erythrocyte [1]): > 300 µM
CCCCCCCCCCCCCCCCC(=O)NCCCC[C@@H](NC(=O)[C@@H](NC(=O)[C@H](CCCNC(=N)N)NC(=O)[C@@H](CCCCN)NC(=O)[C@H](CC(C)C)NC(=O)[C@H](CC(C)C)NC(=O)CN)[C@@H](C)CC)C(=O)N[C@H](C(=O)N[C@@H](CC(C)C)C(=O)N[C@@H](CC(C)C)C(N)=O)[C@@H](C)O | 64 µM | 16 µM (≈ 22.5 µg/mL) | 32 µM (≈ 45 µg/mL) | 64 µM (≈ 90 µg/mL) | 64 µM (≈ 90 µg/mL) | 64 µM (≈ 90 µg/mL) | 16 µM (≈ 22.5 µg/mL) | 16 µM |  |  |  |  |  | 
CC(C)C[C@@H](NC(=O)[C@@H](CC(C)C)NC(=O)[C@@H](CCCCN)NC(=O)[C@@H](CCCCN)NC(=O)[C@@H](Cc1c[nH]c2ccccc12)NC(=O)[C@@H](CCCNC(=N)N)NC(=O)[C@@H](CCCCN)NC(=O)[C@@H](CC(C)C)NC(=O)[C@@H](CC(C)C)NC(=O)[C@H](N)Cc1c[nH]c2ccccc12)C(N)=O |  |  |  |  |  |  |  |  |  |  |  |  |  | MIC (Staphylococcus aureus [8]): 16 µM (≈ 22.1 µg/mL); MIC (Bacillus subtilis [9]): 4 µM (≈ 5.53 µg/mL); MIC (Escherichia coli [10]): 8 µM (≈ 11.1 µg/mL); MIC (Pseudomonas aeruginosa [11]): 8 µM (≈ 11.1 µg/mL); HC10 (Erythrocyte [1]): > 200 µM
CCCCCCCCCCCCCCC(=O)NCCCC[C@@H](NC(=O)[C@@H](NC(=O)[C@H](CCCNC(=N)N)NC(=O)[C@@H](CCCCN)NC(=O)[C@H](CC(C)C)NC(=O)[C@H](CC(C)C)NC(=O)CN)[C@@H](C)CC)C(=O)N[C@H](C(=O)N[C@@H](CC(C)C)C(=O)N[C@@H](CC(C)C)C(N)=O)[C@@H](C)O | 16 µM | 8 µM (≈ 11 µg/mL) | 4 µM (≈ 5.51 µg/mL) | 64 µM (≈ 88.2 µg/mL) | 32 µM (≈ 44.1 µg/mL) | 32 µM (≈ 44.1 µg/mL) | 8 µM (≈ 11 µg/mL) | 16 µM |  |  |  |  |  | 
CCCCCCCCCCCCC(=O)NCCCC[C@@H](NC(=O)[C@@H](NC(=O)[C@H](CCCNC(=N)N)NC(=O)[C@@H](CCCCN)NC(=O)[C@H](CC(C)C)NC(=O)[C@H](CC(C)C)NC(=O)CN)[C@@H](C)CC)C(=O)N[C@H](C(=O)N[C@@H](CC(C)C)C(=O)N[C@@H](CC(C)C)C(N)=O)[C@@H](C)O | 4 µM | 2 µM (≈ 2.7 µg/mL) | 4 µM (≈ 5.4 µg/mL) | 16 µM (≈ 21.6 µg/mL) | 8 µM (≈ 10.8 µg/mL) | 16 µM (≈ 21.6 µg/mL) | 4 µM (≈ 5.4 µg/mL) | 32 µM |  |  |  |  |  | 
CC[C@H](C)[C@H](NC(=O)[C@H](Cc1ccccc1)NC(=O)[C@H](CCCCN)NC(=O)[C@H](CC(C)C)NC(=O)[C@H](CC(C)C)NC(=O)CN)C(=O)N[C@@H](CCCCN)C(=O)N[C@@H](Cc1c[nH]c2ccccc12)C(=O)N[C@@H](CC(C)C)C(=O)N[C@@H](CC(C)C)C(N)=O (H-GLLKFIKWLL-NH2) |  |  |  |  |  |  |  |  | 256 µM | 7.4 µM (≈ 9.1 µg/mL) | 0.8 µM (≈ 0.984 µg/mL) | 22.1 µM | 0.6 µM | 
CC(C)C[C@H](NC(=O)[C@H](CC(C)C)NC(=O)[C@@H](NC(=O)[C@H](CCCCN)NC(=O)[C@H](Cc1ccc2ccccc2c1)NC(=O)[C@H](CCCNC(=N)N)NC(=O)[C@H](CCCCN)NC(=O)[C@H](CC(C)C)NC(=O)[C@H](CC(C)C)NC(=O)CN)[C@@H](C)O)C(N)=O (H-GLLKR[2Nal]KTLL-NH2) |  |  |  |  |  |  |  |  | 28.4 µM | 85.3 µM (≈ 106 µg/mL) | 28.4 µM (≈ 35.1 µg/mL) | 28.4 µM | > 500 µM | 
CC(C)C[C@H](NC(=O)[C@H](CC(C)C)NC(=O)[C@@H](NC(=O)[C@H](CCCCN)NC(=O)[C@H](CC1CCCCC1)NC(=O)[C@H](CCCNC(=N)N)NC(=O)[C@H](CCCCN)NC(=O)[C@H](CC(C)C)NC(=O)[C@H](CC(C)C)NC(=O)CN)[C@@H](C)O)C(N)=O (H-GLLKR[Cha]KTLL-NH2) |  |  |  |  |  |  |  |  | 15.8 µM | 28.4 µM (≈ 33.9 µg/mL) | 6 µM (≈ 7.16 µg/mL) | 28.4 µM | 304 µM | 
CC[C@H](C)C[C@H](NC(=O)[C@H](CCCNC(=N)N)NC(=O)[C@H](CCCCN)NC(=O)[C@H](CC(C)C)NC(=O)[C@H](CC(C)C)NC(=O)CN)C(=O)N[C@@H](CCCCN)C(=O)N[C@H](C(=O)N[C@@H](CC(C)C)C(=O)N[C@@H](Cc1ccc2ccccc2c1)C(N)=O)[C@@H](C)O (H-GLLKR[hIle]KTL[2Nal]-NH2) |  |  |  |  |  |  |  |  | 9.5 µM | 28.4 µM (≈ 35.5 µg/mL) | 9.5 µM (≈ 11.9 µg/mL) | 22.1 µM | 18 µM | 
